Measured values from patent US20210123061A1, “METHODS AND COMPOSITIONS FOR TREATING INFLAMMATORY DISEASE OR DISORDER” (THE BRIGHAM AND WOMEN'S HOSPITAL, INC., priority 2018, published 2021).

System: activated macrophages (CD45+ CD11b+ F4/80+ CD86+ cells)
Experiment: Mouse model of thioglycollate-elicited peritonitis, flow cytometry of peritoneal cells
Assay type: in vivo, mice
Conditions: 30 mg/kg intraperitoneally, twice; 24 hours after thioglycollate
Description: FIGS. 5A-5D show RSK activity plays a key role for pro-inflammatory activation of macrophages in peritonitis model. (FIG. 5A) Model overview—mice were injected intraperitoneally with vehicle or 30 mg/kg BI-D1870. Twenty-four hours after the injection, 4% thioglycollate as well as vehicle or 30 mg/kg BI-D1870 were injected intraperitoneally in the mice. Forty-eight hours after the first injection, peritoneal cells were harvested. (FIG. 5B) Representative results of flow cytometry. Peritoneal cells were incubated with APC-Cy7-anti-CD45, FITC-anti-F4/80, APC-anti-CD11b, and PE-Cy7-anti-CD86 followed by flow-cytometry analysis. (FIG. 5C) Ratio of CD86-positive cells in peritoneal macrophages. Data are means±SE. N=10 mice. *P<0.05 indicates significance compared to control (vehicle) by unpaired Student's test. (FIG. 5D) Cell numbers of peritoneal CD86-positive macrophages. Data are means±SE. N=10 mice. *P<0.05 indicates significance by unpaired Student's test.
Mouse peritonitis model. C57BL/6J wild type mice (12 weeks old, male) were purchased from Jackson Laboratory. We injected intraperitoneally with vehicle (30% PEG400, 0.5% Tween80, 5% Propylene glycol) or 30 mg/kg BI-D1870 (Selleck Chemicals). […]
Flow cytometry. […] After washing cells with EasySep Buffer, stained cells were analyzed by BD FACSAria II (BD Bioscience) and FlowJo software (FlowJo LLC).

**Q.** `CC(C)CCN1c2nc(Nc3cc(F)c(O)c(F)c3)ncc2N(C)C(=O)C1C` (centres unmarked) [BI-D1870] was tested. Which “accumulation of activated macrophages in peritoneal cavity” value did it give?
**A.** suppressed

**Q.** What about the “ratio of activated macrophages to total macrophages” value of the same molecule?
**A.** suppressed
